In patent publication US12630563B2, “Macrocyclic RIP2-kinase inhibitors” (Oncodesign S.A., priority 2020, dated 2026):

Target: T1, recombinant hRIPK2 protein (kinase domain aa 1-299-His-tagged) (Homo sapiens, UniProt O43353)
T1 construct: kinase domain aa 1-299-His-tagged; purchased Life Technologies PR7829A
Assay: RIPK2 AlphaLISA assay (displacement of bead-bound CZC-8004 from hRIPK2)
Assay type: binding
Conditions: recombinant hRIPK2 kinase domain 10 nM, 2 h at 23° C.
Summary of the method: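 His-tagged kinase domain (10 nM, as diluted) was mixed with compound (0.8% DMSO), acceptor beads bearing the probe CZC-8004 and Ni2+ donor beads. After 2 h at 23 °C, AlphaLISA signal was read. Loss of signal reflects displacement of the probe from RIPK2.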

T1 sequence (O43353 1-299): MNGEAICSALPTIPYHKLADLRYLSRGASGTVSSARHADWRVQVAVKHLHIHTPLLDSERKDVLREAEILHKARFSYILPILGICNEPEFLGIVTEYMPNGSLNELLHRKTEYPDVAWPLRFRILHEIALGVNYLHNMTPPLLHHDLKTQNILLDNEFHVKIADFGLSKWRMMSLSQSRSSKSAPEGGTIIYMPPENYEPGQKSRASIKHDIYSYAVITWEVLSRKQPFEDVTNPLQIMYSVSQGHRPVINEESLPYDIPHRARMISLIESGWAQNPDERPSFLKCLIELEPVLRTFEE

IC50 [nM]	Compound
< 10	COCCO[C@@H]1C[C@H]2COc3ccn4ncc(c4n3)-c3cc(cc(C(C)=O)c3)NCCN2C1=O [Example 98, (12R,14S)-4-acetyl-12-(2-methoxyethoxy)-16-oxa-7,10,20,21,24-pentaazapentacyclo[15.5.2.1^2,6.0^10,^14.0^20,^23]pentacosa-1(23),2,4,6(25),17(24),18,21-heptaen-11-one]
< 10	COCCO[C@@H]1C[C@H]2COc3nc4c(cnn4cc3OC)-c3cc(cc(C(C)=O)c3)NCCN2C1=O [Example 99, (12R,14S)-4-acetyl-18-methoxy-12-(2-methoxyethoxy)-16-oxa-7,10,20,21,24-pentaazapentacyclo[15.5.2.1^2,6.0^10,^14.0^20,^23]pentacosa-1(23),2(25),3,5,17(24),18,21-heptaen-11-one]
10 to 100	COCC#Cc1cc2cc(c1)-c1cnn3ccc(nc13)OC[C@@H]1C[C@@H](OCCOC)C(=O)N1CCN2 [Example 100, (12R,14S)-12-(2-methoxyethoxy)-4-(3-methoxyprop-1-yn-1-yl)-16-oxa-7,10,20,21,24-pentaazapentacyclo[15.5.2.1^2,6.0^1°,^14.0^2°,^23]pentacosa-1(23),2(25),3,5,17(24),18,21-heptaen-11-one]
100 to 11000	COCCO[C@@H]1C[C@H]2COc3ccn4ncc(c4n3)-c3cc(cc(C(=O)C4CC4)c3)NCCN2C1=O [Example 101, (12R,14S)-4-cyclopropanecarbonyl-12-(2-methoxyethoxy)-16-oxa-7,10,20,21,24-pentaazapentacyclo[15.5.2.1^2,6.0^1°,^14.0^2°,^23]pentacosa-1(23),2,4,6(25),17(24),18,21-heptaen-11-one]

Continued, compound first:

Compound	IC50 [nM]
O=C1[C@H](OCC2COC2)C[C@H]2COc3ccn4ncc(c4n3)-c3cc(F)cc(c3)NCCN12 [Example 91, (12R,14S)-4-fluoro-12-(oxetan-3-ylmethoxy)-16-oxa-7,10,20,21,24-pentaazapentacyclo[15.5.2.1^2,6.0^1°,^14.0^2°,^23]pentacosa-1(23),2(25),3,5,17(24),18,21-heptaen-11-one]	< 10
[2H]C([2H])([2H])Oc1cn2ncc3c2nc1OC[C@@H]1C[C@@H](OC)C(=O)N1CCNc1cc(F)cc-3c1 [Example 92, (12R,14S)-4-fluoro-18-(^2H3)methoxy-12-methoxy-16-oxa-7,10,20,21,24-pentaazapentacyclo[15.5.2.1^2,6.0^1°,^14.0^2°,^23]pentacosa-1(23),2(25),3,5,17(24),18,21-heptaen-11-one]	< 10
CO[C@@H]1C[C@H]2COc3ccn4ncc(c4n3)-c3cc(cc(-c4cnn(CCO)c4)c3)NCCN2C1=O [Example 93, (12R,14S)-4-[1-(2-hydroxyethyl)-1H-pyrazol-4-yl]-12-methoxy-16-oxa-7,10,20,21,24-pentaazapentacyclo[15.5.2.1^2,6.0^1°,^14.0^2°,^23]pentacosa-1(23),2,4,6(25),17(24),18,21-heptaen-11-one]	100 to 11000
[2H]C([2H])([2H])Oc1cc2cc(c1)-c1cnn3ccc(nc13)OC[C@@H]1C[C@@H](OCC)C(=O)N1CCN2 [Example 94, (12R,14S)-12-ethoxy-4-(^2H3)methoxy-16-oxa-7,10,20,21,24-pentaazapentacyclo[15.5.2.1^2,6.0^10,^14.0^20,^23]pentacosa-1(23),2(25),3,5,17(24),18,21-heptaen-11-one]	< 10
CCO[C@@H]1C[C@H]2COc3ccn4ncc(c4n3)-c3cc(O)cc(c3)NCCN2C1=O [Example 96, (12R,14S)-12-ethoxy-4-hydroxy-16-oxa-7,10,20,21,24-pentaazapentacyclo[15.5.2.1^2,6.0^1°,^14.0^2°,^23]pentacosa-1(23),2(25),3,5,17(24),18,21-heptaen-11-one]	< 10
COCCO[C@@H]1C[C@H]2COc3ccn4ncc(c4n3)-c3cc(O)cc(c3)NCCN2C1=O [Example 97, (12R,14S)-4-hydroxy-12-(2-methoxyethoxy)-16-oxa-7,10,20,21,24-pentaazapentacyclo[15.5.2. 1^2,6.0^10,^14.0^20,^23]pentacosa-1(23),2,4,6(25),17(24),18,21-heptaen-11-one]	< 10
